# Source: publication PMC11795524, “Melanin-Binding-Based Discovery of Topically Instilled Carbonic Anhydrase Inhibitors for Targeted Delivery and Prolonged Action in the Eye” (Molecular Pharmaceutics, 2025)
# Read-outs that look alike come from different tables or passages of the source.
# Key:
# [1] = biological target: recombinant human carbonic anhydrase II; parameters: method as in earlier work; details: stopped flow kinetics protocol; read-out: Ki against hCA II; cited from earlier work
# [2] = In vitro melanin binding by microscale thermophoresis / initial fluorescence (Monolith NT.115 pico); details: Appendix table 1, Nano or Pico detector, IF or MST mode, 68% confidence; for Kd: read-out: Melanin binding affinity Kd ± confidence
# Text: Melanin binding of the CAI-II compounds was studied with a Monolith NT.115 pico (NanoTemper Technologies GmbH, Munich, Germany) device using the method of […] et al. […] Otherwise, normalized fluorescence signals and the ratio of relative fluorescence after heating (MST mode) were used. The MST software was used in expert mode to allow heating for 30 s. […] As ligand autofluorescence may interfere with the assay, their autofluorescence values were pretested with the detector used in experiment (nanoblue or pico-red). Fluorescence of the ligand should be below 20% of melanin fluorescence. Sample aggregation and adsorption to the capillaries were used also as exclusion criteria.
# [3] = biological target: T1, human carbonic anhydrase II (Homo sapiens, UniProt P00918); test: Multiparametric surface plasmon resonance (MP-SPR) interaction kinetics with immobilized hCAII; assay type: binding
# T1 construct: purchased Sigma
# Description: All MP-SPR measurements were conducted at 25 °C using carboxymethyl dextran hydrogel-coated (CMD-3DM) sensors (BioNavis) and were based on the protocol described by Rogez-Florent et al.[22]
# Human carbonic anhydrase isoenzyme II (Sigma) was immobilized using a standard amine coupling procedure with the Amine Coupling Kit (BioNavis) and phosphate buffered saline (PBS) (20 mM phosphate buffer, 150 mM NaCl, pH 7.4) as the background buffer. Before immobilization, the sensor surface was cleaned with 2 M sodium chloride and 10 mM sodium hydroxide for 6 min at a flow rate of 30 μL/min. Then, a constant flow rate of 10 μL/min was maintained throughout the immobilization steps. The surface was activated for 7 min with 200 mM 1-ethyl-3-(3-(dimethylamino)propyl)-carbodiimide (EDC) and 50 mM N-hydroxysuccinimide, immediately followed by a 5 min injection of 45 μg/mL hCAII solution in 10 mM acetate buffer, pH 5.5. In the reference flow channel, no enzyme was immobilized. Residual activated groups of the dextran matrix were deactivated by a 7 min injection of 1 M ethanolamine HCl, pH 8.3.
# For analyzing CAIs, 1% (v/v) DMSO in PBS, pH 7.4, was used as a running buffer. All CAIs were dissolved in 100% DMSO and stored as 50 mM stock solutions. These stock solutions were further diluted with the running buffer and analyzed using a 3-fold (3–1000 nM) dilution series. […] Each analyte was injected at a flow rate of 100 μL/min, with an association time of 2 min and a dissociation time of 10 min. […] Seven concentrations were measured for each CAI per cycle, and a “wash all” step with running buffer was performed at the end of each cycle to minimize the carry over effects. Each CAI were assayed in triplicate across three independent experiments.
# The acquired data were processed using MP-SPR Navi Data Viewer software (version 6.7.0.1, BioNavis) employing the weighted centroid method for determining the SPR peak angular position. Signals from the reference flow channel were subtracted from the corresponding signals of the flow channel containing immobilized hCAII. The moment of sample injection was selected as the zero-time point, where both the time and MP-SPR response were set to zero. Processed data were globally fitted to a simple 1:1 interaction model using TraceDrawer software (version 1.9.2, Ridgeview Instruments AB, Sweden) to obtain kinetic parameters.
# [4] = MP-SPR, 25 °C, 1:1 model, read-out: KD
Structure (SMILES),Ki [1],Kd [2],further results
NS(=O)(=O)c1cccc(-c2nc(-c3cccnc3)no2)c1 [A02],0.77 ± 0.08 nM,78 ± 24 µM,–
NS(=O)(=O)c1ccc(-n2nc(-c3ccccc3)ccc2=O)cc1 [A03],0.26 ± 0.03 nM,78 ± 39 µM,–
COc1ccc(-c2noc(-c3ccc(S(N)(=O)=O)cc3)n2)cc1OC [A04],0.46 ± 0.05 nM,92 ± 17 µM,–
CC(=NNc1ccc(S(N)(=O)=O)cc1)c1nccnc1C [A05],–,97 ± 44 µM,"ka ([3]; MP-SPR, 25 °C, 1:1 model): 0.61 ± 0.25 10^6 M^–1 s^–1; kd ([3]; MP-SPR, 25 °C, 1:1 model): 1.70 ± 0.25 10^–2 s^–1; Kd [3, 4]: 0.0315 ± 0.00919 µM"
NS(=O)(=O)c1ccc(-n2ncc3ccccc3c2=O)cc1 [A06],0.23 ± 0.02 nM,104 ± 42 µM,–
NS(=O)(=O)c1ccc(NN=C(c2cncc(F)c2)C2CC2)cc1 [A07],–,115 ± 85 µM,"ka ([3]; MP-SPR, 25 °C, 1:1 model): 0.24 ± 0.05 10^6 M^–1 s^–1; kd ([3]; MP-SPR, 25 °C, 1:1 model): 1.78 ± 0.40 10^–2 s^–1; Kd [3, 4]: 0.0756 ± 0.0112 µM; Kd ([3]; surface plasmon resonance, Appendix table 1, read-out: Kd against hCA II): 0.0756 ± 0.0112 µM"
COc1ccc2cnn(-c3ccc(S(N)(=O)=O)cc3)c(=O)c2c1OC [A08],3.5 ± 0.4 nM,142 ± 55 µM,–
COc1cc(S(N)(=O)=O)ccc1-c1nc(-c2cccnc2)no1 [A09],0.74 ± 0.08 nM,152 ± 98 µM,–
COc1ccc(-c2ccc(=O)n(-c3ccc(S(N)(=O)=O)cc3)n2)cc1 [A10],0.08 ± 0.001 nM,156 ± 101 µM,–
Cc1ccccc1-c1noc(-c2ccc(S(N)(=O)=O)cc2)n1 [A11],0.42 ± 0.04 nM,177 ± 56 µM,–
NS(=O)(=O)c1ccc(-n2cccn2)cc1 [A13],0.072 ± 0.001 nM,203 ± 367 µM,–
Cc1nn(-c2ccc(S(N)(=O)=O)cc2)c(=O)c2ccccc12 [A14],0.03 ± 0.01 nM,205 ± 98 µM,–
NS(=O)(=O)c1ccc(-c2nc(-c3ccc(Oc4ccc(F)cc4)cc3)no2)cc1 [A16],48.3 ± 4.8 nM,451 ± 581 µM,–
NS(=O)(=O)c1ccc(-c2noc(-c3ccsc3)n2)cc1 [A18],44.3 ± 4.4 nM,520 ± 79 µM,–
NS(=O)(=O)c1ccc(-n2ncccc2=O)cc1 [A20],8.2 ± 0.8 nM,–,–
NS(=O)(=O)c1ccc2c(c1)Oc1ccccc1C(=O)N2C1CC1 [A21],0.82 ± 0.08 nM,722 ± 1030 µM,–
Cc1cc(-n2cccn2)ccc1S(N)(=O)=O [A23],0.008 ± 0.001 nM,957 ± 2010 µM,–
COc1cc(S(N)(=O)=O)ccc1-c1nc(-c2ccc3c(c2)OC(=O)CN3C)no1 [A24],48.3 ± 4.8 nM,1550 ± 4580 µM,–
NS(=O)(=O)c1ccc(-n2nc(-c3ccc(Cl)c(Cl)c3)ccc2=O)cc1 [A25],74.1 ± 7.4 nM,–,–

Structure (SMILES),Ki [1],Kd [2],further results
CC(C)(C)c1ccc(-c2noc(-c3ccc(S(N)(=O)=O)cc3)n2)cc1 [A26],0.95 ± 0.09 nM,–,–
NS(=O)(=O)c1ccc(Cl)c(-n2cccn2)c1 [A27],0.001 ± 0.001 nM,–,–
Cc1cc(C)n(-c2ccc(S(N)(=O)=O)cc2)n1 [A28],0.004 ± 0.001 nM,–,–
NS(=O)(=O)c1ccc(-n2ncc(N3CCc4ccccc4C3)c(Cl)c2=O)cc1 [A29],60.5 ± 6 nM,–,–
Cc1ccc(=O)n(-c2ccc(S(N)(=O)=O)cc2)n1 [A30],0.68 ± 0.07 nM,–,Melanin binding affinity Kd ± confidence [2]: Not detectable
CCn1nc(-c2cc(S(N)(=O)=O)c(C)s2)ccc1=O [B01],4.8 ± 0.5 nM,105 ± 30 µM,–
NS(=O)(=O)c1ccc(-c2ncc(C(=O)N3CCNCC3)o2)s1 [B02],0.069 ± 0.007 nM,165 ± 19 µM,–
CC(=O)Nc1nc(-c2csc(S(N)(=O)=O)c2)no1 [B03],–,231 ± 43 µM,–
NS(=O)(=O)c1ccc(-c2ccc(=O)[nH]n2)s1 [B04],3.6 ± 0.4 nM,393 ± 185 µM,–
NS(=O)(=O)c1cc(-c2noc(C3CC3)n2)cs1 [B05],0.88 ± 0.08 nM,448 ± 166 µM,–
Cc1ccc(-c2noc(N)c2S(N)(=O)=O)cc1S(N)(=O)=O [B06],6 ± 0.6 nM,573 ± 154 µM,–
NS(=O)(=O)c1cnn(-c2ccc(Cl)c(S(N)(=O)=O)c2)c1 [B07],0.008 ± 0.001 nM,941 ± 1740 µM,–
Cc1nn(-c2ccc(Cl)c(S(N)(=O)=O)c2)c(C)c1S(N)(=O)=O [B08],0.008 ± 0.001 nM,–,–
Nc1onc(-c2csc(S(N)(=O)=O)c2)c1S(N)(=O)=O [B09],24.6 ± 2.5 nM,2130 µM,–
Cc1nn(-c2cc(S(N)(=O)=O)ccc2Cl)c(C)c1S(N)(=O)=O [B10],0.008 ± 0.01 nM,–,–
Cc1ccccc1-n1nc(C)c(S(N)(=O)=O)c1C [B11],0.091 ± 0.01 nM,–,Melanin binding affinity Kd ± confidence [2]: Not detectable
NS(=O)(=O)Nc1ccc(F)cc1F [C01],76.3 ± 7.6 nM,92 ± 25 µM,–
NS(=O)(=O)NCc1cccc2ccccc12 [C02],5250 ± 525 nM,122 ± 40 µM,–
NS(=O)(=O)NCc1ccc(F)cc1 [C03],70.5 ± 7.1 nM,361 ± 700 µM,–

Structure (SMILES),Ki [1],Kd [2],further results
NS(=O)(=O)N1CCC(O)CC1 [C04],42.7 ± 4.3 nM,405 ± 311 µM,–
NS(=O)(=O)NCC1CCCO1 (stereo not drawn) [C05],63.4 ± 6.3 nM,412 ± 802 µM,–
NS(=O)(=O)Nc1ccc(C(F)(F)F)cc1 [C06],37.8 ± 3.8 nM,582 ± 465 µM,–
NS(=O)(=O)NCCc1ccc(S(=O)(=O)N2CCCC2)cc1 [C07],43.5 ± 4.4 nM,596 ± 264 µM,–
NS(=O)(=O)Nc1cccc2ccccc12 [C08],56.7 ± 5.7 nM,1050 ± 2070 µM,–
NS(=O)(=O)N1CCc2ccccc2C1 [C09],32.8 ± 3.3 nM,1120 ± 2350 µM,–
CCN(CC)CCN(C)S(N)(=O)=O [C10],92.3 ± 9.2 nM,1520 ± 4030 µM,–
CN(C)CCN(Cc1ccccc1)S(N)(=O)=O [C11],39.8 ± 4 nM,1620 ± 4530 µM,–
CN1CCC(NS(N)(=O)=O)CC1 [C12],52.1 ± 5.2 nM,1680 ± 3480 µM,–
CC1Cc2ccccc2N1S(N)(=O)=O (stereo not drawn) [C13],316 ± 31.6 nM,1700 µM,–
NS(=O)(=O)N1CCC(N2CCCCC2)CC1 [C14],99.3 ± 9.9 nM,–,–
NS(=O)(=O)N1CCCc2ccccc21 [C15],89.5 ± 9 nM,–,–
NS(=O)(=O)NC1CCCc2ccccc21 (stereo not drawn) [C16],42.6 ± 4.3 nM,25000 µM,–
CC(C)(C)OC(=O)N1CCN(S(N)(=O)=O)CC1 [C17],16.2 ± 1.6 nM,–,Melanin binding affinity Kd ± confidence [2]: Not detectable
COC(=O)C1CCCN1S(N)(=O)=O (stereo not drawn) [C18],69.8 ± 7 nM,–,Melanin binding affinity Kd ± confidence [2]: Not detectable
NS(=O)(=O)N1CCc2ccccc21 [C19],472 ± 47.2 nM,–,Melanin binding affinity Kd ± confidence [2]: Not detectable
CCOC(=O)C1CCN(S(N)(=O)=O)CC1 [C20],42.8 ± 4.3 nM,–,Melanin binding affinity Kd ± confidence [2]: Not detectable
NS(=O)(=O)N1CCOCC1 [C21],66.9 ± 7 nM,–,Melanin binding affinity Kd ± confidence [2]: Not detectable
NC(=O)C1CCN(S(N)(=O)=O)CC1 [C22],59.4 ± 6 nM,–,Melanin binding affinity Kd ± confidence [2]: Not detectable
